Measured values as given in PMC4965013, “Open Source Drug Discovery with the Malaria Box Compound Collection for Neglected Diseases and Beyond” (PLoS Pathogens, 2016).

Legend:
[1] = tested on: P. falciparum 3D7 trophozoites; test: Metabolomic fingerprint profiling LC-MS; type: cell-based, Plasmodium falciparum; design: UDP-D-glucose / ADP-D-glucose: unit not given here; conditions: for Acetyllysine / N-acetyl-L-ornithine / N-carbamoyl-L-aspartate / NADPH / dAMP / dCMP / dTDP / dTMP / dTTP / dihydroorotate / orotate / DLH / DLS/SDL/SID / PD / PEE / PVNF / 3-phosphoglycerate / ADP-D-glucose / ATP / CDP / D-sedoheptulose-1/7-phosphate / FAD / GMP / NAD+ / NADP+ / Octoluse Bisphosphate / Pyroglutamic acid / UDP-D-glucose / UDP-D-glucuronate / UDP-N-acetyl-glucosamine / UDP / UMP / UTP / a-ketoglutarate / citrate/isocitrate / cytidine / dATP / dGMP/AMP / fumarate / glucose-1/6-phosphate / glycerate / guanine / guanosine / hypoxanthine / indole / inosine / nicotinate / ornithine / phosphoenolpyruvate / pyruvate / ribose-phosphate / sarcosine/alanine / sn-glycerol-3-phosphate / succinate/methylmalonic acid / uridine / xanthosine: S2 Table Metabolomics; for Acetyllysine: metabolite Acetyllysine; for N-acetyl-L-ornithine: metabolite N-acetyl-L-ornithine; for N-carbamoyl-L-aspartate: metabolite N-carbamoyl-L-aspartate; for NADPH: metabolite NADPH; for dAMP: metabolite dAMP; for dCMP: metabolite dCMP; for dTDP: metabolite dTDP; for dTMP: metabolite dTMP; for dTTP: metabolite dTTP; for dihydroorotate: metabolite dihydroorotate; for orotate: metabolite orotate; for DLH: peptide DLH; for DLS/SDL/SID: peptide DLS/SDL/SID; for PD: peptide PD; for PEE: peptide PEE; for PVNF: peptide PVNF; for 3-phosphoglycerate: metabolite 3-phosphoglycerate; for ADP-D-glucose: metabolite ADP-D-glucose; for ATP: metabolite ATP; for CDP: metabolite CDP; for CDP / D-sedoheptulose-1/7-phosphate / GMP / Octoluse Bisphosphate / UDP / UMP / UTP / citrate/isocitrate / dGMP/AMP / fumarate / glucose-1/6-phosphate / glycerate / guanine / guanosine / inosine / pyruvate / sarcosine/alanine / succinate/methylmalonic acid / uridine / xanthosine: change in metabolite level after compound treatment; for D-sedoheptulose-1/7-phosphate: metabolite D-sedoheptulose-1/7-phosphate; for FAD: metabolite FAD; for GMP: metabolite GMP; for NAD+: metabolite NAD+; for NADP+: metabolite NADP+; for Octoluse Bisphosphate: metabolite Octoluse Bisphosphate; for Pyroglutamic acid: metabolite Pyroglutamic acid; for UDP-D-glucose: metabolite UDP-D-glucose; for UDP-D-glucuronate: metabolite UDP-D-glucuronate; for UDP-N-acetyl-glucosamine: metabolite UDP-N-acetyl-glucosamine; for UDP: metabolite UDP; for UMP: metabolite UMP; for UTP: metabolite UTP; for a-ketoglutarate: metabolite a-ketoglutarate; for citrate/isocitrate: metabolite citrate/isocitrate; for cytidine: metabolite cytidine; for dATP: metabolite dATP; for dGMP/AMP: metabolite dGMP/AMP; for fumarate: metabolite fumarate; for glucose-1/6-phosphate: metabolite glucose-1/6-phosphate; for glycerate: metabolite glycerate; for guanine: metabolite guanine; for guanosine: metabolite guanosine; for hypoxanthine: metabolite hypoxanthine; for indole: metabolite indole; for inosine: metabolite inosine; for 2_3-Diphosphoglyceric acid / 4-phosphopantothenate / 6-phospho-D-gluconate / FMN / IMP / Pyrophosphate / Sedoheptoluse bisphosphate / cyclic-AMP / glutathione disulfide / lactate / myo-inositol: metabolite level change after treatment; for nicotinate: metabolite nicotinate; for ornithine: metabolite ornithine; for phosphoenolpyruvate: metabolite phosphoenolpyruvate; for pyruvate: metabolite pyruvate; for ribose-phosphate: metabolite ribose-phosphate; for sarcosine/alanine: metabolite sarcosine/alanine; for sn-glycerol-3-phosphate: metabolite sn-glycerol-3-phosphate; for succinate/methylmalonic acid: metabolite succinate/methylmalonic acid; for uridine: metabolite uridine; for xanthosine: metabolite xanthosine
P. falciparum = test: EC50 listed in S2 Table Metabolomics (used to set the concentration tested); type: cell-based; conditions: Plasmodium falciparum; EC50 used for Factor_XEC50 in metabolomics; read-out: EC50_nM

COc1ccc(NC(=O)C2c3ccccc3C(=O)N(CC(C)C)C2c2cccs2)cc1 (stereo not drawn) [MMV000662]
Acetyllysine [1]: -4.572
N-acetyl-L-ornithine [1]: -3.381
N-carbamoyl-L-aspartate [1]: -2.466
NADPH [1]: 2.406
dAMP [1]: 2.2996
dCMP [1]: 1.058
dTDP [1]: 1.444
dTMP [1]: 3.186
dTTP [1]: 1.443
dihydroorotate [1]: -3.591
orotate [1]: -0.05867
DLH [1]: -6.2862
DLS/SDL/SID [1]: -4.745
PD [1]: -2.987
PEE [1]: -3.507
PVNF [1]: -6.642
3-phosphoglycerate [1]: 0.247
ADP-D-glucose [1]: -0.1909
ATP [1]: -1.375
CDP [1]: -0.7124
D-sedoheptulose-1/7-phosphate [1]: -1.119
FAD [1]: -1.511
GMP [1]: -1.853
NAD+ [1]: -0.4043
NADP+ [1]: -0.01609
Octoluse Bisphosphate [1]: -2.194
Pyroglutamic acid [1]: 0.3441
UDP-D-glucose [1]: -0.06213
UDP-D-glucuronate [1]: -0.01201
UDP-N-acetyl-glucosamine [1]: 0.08846
UDP [1]: -1.277
UMP [1]: -0.622
UTP [1]: -1.315
a-ketoglutarate [1]: 0.4405
citrate/isocitrate [1]: 0.05797
cytidine [1]: 0.7559
dATP [1]: 0.06895
dGMP/AMP [1]: -0.6193
fumarate [1]: -0.1354
glucose-1/6-phosphate [1]: -1.428
glycerate [1]: -0.4765
guanine [1]: 0.7318
guanosine [1]: 1.459
hypoxanthine [1]: 0.3686
indole [1]: 0.3717
inosine [1]: 0.5573
2_3-Diphosphoglyceric acid [1]: -1.11
4-phosphopantothenate [1]: -0.6744
6-phospho-D-gluconate [1]: -0.3651
FMN [1]: 0.04988
IMP [1]: -0.0547
Pyrophosphate [1]: -1.578
Sedoheptoluse bisphosphate [1]: -1.096
cyclic-AMP [1]: -0.7789
glutathione disulfide [1]: -0.5026
lactate [1]: -0.6017
myo-inositol [1]: -0.9859
nicotinate [1]: 1.185
ornithine [1]: 0.01334
phosphoenolpyruvate [1]: 0.5172
pyruvate [1]: -1.672
ribose-phosphate [1]: -0.9727
sarcosine/alanine [1]: -1.6779
sn-glycerol-3-phosphate [1]: 0.8186
succinate/methylmalonic acid [1]: 0.3034
uridine [1]: 1.71
xanthosine [1]: -1.3795
EC50 (P. falciparum): 36.7 nM

CCOC(=O)c1c(C)n(-c2ccc(Cl)cc2)c2ccc(OC(=O)C=Cc3ccccc3)cc12 [MMV666600]
Acetyllysine [1]: 0.2658
N-acetyl-L-ornithine [1]: 0.3826
N-carbamoyl-L-aspartate [1]: 0.5043
NADPH [1]: -0.1791
dAMP [1]: 0.1797
dCMP [1]: 0.7303
dTDP [1]: 0.6846
dTMP [1]: 0.3563
dTTP [1]: 0.1062
dihydroorotate [1]: 0.2265
orotate [1]: 0.0746
DLH [1]: 0.4837
DLS/SDL/SID [1]: 0.1278
PD [1]: 0.2139
PEE [1]: 0.4962
PVNF [1]: 0.206
3-phosphoglycerate [1]: 0.1223
ADP-D-glucose [1]: 0.3003
ATP [1]: 0.3662
CDP [1]: 0.7598
D-sedoheptulose-1/7-phosphate [1]: 0.476
FAD [1]: 0.1354
GMP [1]: -0.291
NAD+ [1]: 0.8191
NADP+ [1]: 0.2752
Octoluse Bisphosphate [1]: 0.3013
Pyroglutamic acid [1]: 0.03669
UDP-D-glucose [1]: 0.1154
UDP-D-glucuronate [1]: 0.1408
UDP-N-acetyl-glucosamine [1]: 0.05839
UDP [1]: 0.7125
UMP [1]: 0.02013
UTP [1]: 0.206
a-ketoglutarate [1]: -0.01449
citrate/isocitrate [1]: 0.5294
cytidine [1]: -0.3168
dATP [1]: 0.2753
dGMP/AMP [1]: 0.4942
fumarate [1]: 0.3444
glucose-1/6-phosphate [1]: 0.5114
glycerate [1]: 0.0963
guanine [1]: 0.1348
guanosine [1]: -0.1252
hypoxanthine [1]: 0.2037
indole [1]: -0.0001746
inosine [1]: 0.0653
2_3-Diphosphoglyceric acid [1]: 0.1463
4-phosphopantothenate [1]: 0.3013
6-phospho-D-gluconate [1]: 0.08781
FMN [1]: -0.2862
IMP [1]: 0.3406
Pyrophosphate [1]: 0.1816
Sedoheptoluse bisphosphate [1]: 0.1719
cyclic-AMP [1]: 0.1868
glutathione disulfide [1]: 0.1725
lactate [1]: 0.1409
myo-inositol [1]: -0.8322
nicotinate [1]: 0.07374
ornithine [1]: 0.01544
phosphoenolpyruvate [1]: 0.01685
pyruvate [1]: -0.07405
ribose-phosphate [1]: 0.1875
sarcosine/alanine [1]: -0.13
sn-glycerol-3-phosphate [1]: -0.02611
succinate/methylmalonic acid [1]: 0.1082
uridine [1]: 0.1838
xanthosine [1]: 0.13
EC50 (P. falciparum): 216 nM

CCCc1cc(O)c2c3c(c(=O)oc2c1)CN(C)CC3 [MMV665841]
Acetyllysine [1]: -2.612
N-acetyl-L-ornithine [1]: -1.949
N-carbamoyl-L-aspartate [1]: -0.955
NADPH [1]: 0.07097
dAMP [1]: -0.5338
dCMP [1]: 0.378
dTDP [1]: -0.09857
dTMP [1]: -0.08494
dTTP [1]: 0.3392
dihydroorotate [1]: -0.7381
orotate [1]: -0.6991
DLH [1]: -2.223
DLS/SDL/SID [1]: -2.0523
PD [1]: -2.506
PEE [1]: -2.465
PVNF [1]: -2.267
3-phosphoglycerate [1]: 0.2411
ADP-D-glucose [1]: 0.03562
ATP [1]: 0.3706
CDP [1]: -0.1497
D-sedoheptulose-1/7-phosphate [1]: -0.0969
FAD [1]: 0.4757
GMP [1]: 0.7431
NAD+ [1]: 0.1538
NADP+ [1]: 0.3743
Octoluse Bisphosphate [1]: -0.2246
Pyroglutamic acid [1]: 0.8685
UDP-D-glucose [1]: 0.1781
UDP-D-glucuronate [1]: 0.2234
UDP-N-acetyl-glucosamine [1]: 0.1163
UDP [1]: -0.165
UMP [1]: 0.01879
UTP [1]: 0.1488
a-ketoglutarate [1]: -1.017
citrate/isocitrate [1]: -0.03416
cytidine [1]: 0.6575
dATP [1]: -0.1225
dGMP/AMP [1]: -0.03336
fumarate [1]: -0.991
glucose-1/6-phosphate [1]: 0.02998
glycerate [1]: -0.7467
guanine [1]: -0.195
guanosine [1]: -0.4835
hypoxanthine [1]: 0.1991
indole [1]: -0.2191
inosine [1]: 0.006205
2_3-Diphosphoglyceric acid [1]: 0.1243
4-phosphopantothenate [1]: -0.4271
6-phospho-D-gluconate [1]: -0.03292
FMN [1]: 0.1348
IMP [1]: -0.4143
Pyrophosphate [1]: 0.01603
Sedoheptoluse bisphosphate [1]: -0.2052
cyclic-AMP [1]: -0.23
glutathione disulfide [1]: -0.3848
lactate [1]: -0.3481
myo-inositol [1]: -0.7715
nicotinate [1]: -0.06082
ornithine [1]: -0.04541
phosphoenolpyruvate [1]: 0.2681
pyruvate [1]: -0.1725
ribose-phosphate [1]: -0.5158
sarcosine/alanine [1]: -1.291
sn-glycerol-3-phosphate [1]: -0.1021
succinate/methylmalonic acid [1]: -0.1585
uridine [1]: -0.2002
xanthosine [1]: -0.28
EC50 (P. falciparum): 146 nM
